Source: the NIST ThermoML archive (doi:10.1016/j.jct.2014.01.030)

Assay: xn = mol fraction of the nth substance listed
Settings: 101 kPa, Liquid; for speed of sound: Sing-around technique in a fixed-path interferometer; for mass density: Vibrating tube method

CCn1cc[n+](C)c1.COS(=O)(=O)[O-] [1-ethyl-3-methylimidazolium methylsulfate] + CC(C)O
Settings	mass density, 288.15 K [kg/m3]	mass density, 298.15 K [kg/m3]	mass density, 308.15 K [kg/m3]	speed of sound, 288.15 K [m/s]	speed of sound, 298.15 K [m/s]	speed of sound, 308.15 K [m/s]
x2 = 0	1287.57	1280.81	1273.97	1781	1756	1732
x2 = 0.049	1277.61	1270.72	1263.87	1766	1741	1717
x2 = 0.101	1266.36	1259.44	1252.56	1749	1724	1700
x2 = 0.205	1240.88	1233.92	1227.01	1708	1683	1658
x2 = 0.307	1212.09	1205.09	1198.13	1659	1634	1609
x2 = 0.388	1185.23	1178.18	1171.15	1614	1588	1564
x2 = 0.505	1140.35	1133.21	1126.08	1541	1515	1490
x2 = 0.611	1091.15	1083.89	1076.62	1469	1443	1416
x2 = 0.705	1039.05	1031.61	1024.15	1402	1375	1348
x2 = 0.805	972.17	964.55	956.84	1326	1298	1269
x2 = 0.902	891.92	884.06	876.06	1252	1221	1190
x2 = 0.953	842.51	834.48	826.24	1214	1181	1148

CCn1cc[n+](C)c1.COS(=O)(=O)[O-] [1-ethyl-3-methylimidazolium methylsulfate] + CCC(C)O
Settings	mass density, 288.15 K [kg/m3]	mass density, 298.15 K [kg/m3]	mass density, 308.15 K [kg/m3]	speed of sound, 288.15 K [m/s]	speed of sound, 298.15 K [m/s]	speed of sound, 308.15 K [m/s]
x2 = 0	1287.57	1280.81	1273.97	1781	1756	1732
x2 = 0.054	1274.82	1267.9	1261.04	1762	1738	1714
x2 = 0.106	1261.26	1254.37	1247.52	1743	1718	1693
x2 = 0.204	1233.86	1226.94	1220.05	1698	1673	1649
x2 = 0.306	1201.1	1194.21	1187.37	1644	1619	1594
x2 = 0.405	1165.21	1158.22	1151.25	1587	1562	1536
x2 = 0.507	1122.93	1115.87	1108.83	1527	1501	1475
x2 = 0.608	1075.89	1068.69	1061.49	1467	1440	1414
x2 = 0.713	1019.51	1012.15	1004.76	1406	1378	1350
x2 = 0.801	964.94	957.44	949.85	1356	1326	1297
x2 = 0.905	890.81	883.1	875.21	1299	1267	1235
x2 = 0.948	856.61	848.81	840.73	1277	1244	1210

CCn1cc[n+](C)c1.COS(=O)(=O)[O-] [1-ethyl-3-methylimidazolium methylsulfate] + CCCCCO
Settings	mass density, 288.15 K [kg/m3]	mass density, 298.15 K [kg/m3]	mass density, 308.15 K [kg/m3]	speed of sound, 288.15 K [m/s]	speed of sound, 298.15 K [m/s]	speed of sound, 308.15 K [m/s]
x2 = 0	1287.57	1280.81	1273.97	1781	1756	1732
x2 = 0.057	1271.79	1264.9	1258.06	1759	1734	1710
x2 = 0.113	1255.1	1248.21	1241.74	1733	1708	1684
x2 = 0.216	1221.14	1214.5	1207.89	1678	1652	1628
x2 = 0.306	1188.62	1181.87	1175.24	1627	1600	1576
x2 = 0.404	1150.41	1143.48	1136.6	1569	1544	1519
x2 = 0.51	1104.6	1097.6	1090.68	1511	1485	1459
x2 = 0.608	1058.29	1051.16	1043.98	1463	1435	1408
x2 = 0.716	1001.72	994.56	987.39	1413	1385	1357
x2 = 0.801	952.72	945.38	938.08	1378	1349	1320
x2 = 0.9	889.67	882.45	875.19	1342	1311	1280
x2 = 0.956	851	843.78	836.48	1325	1292	1260
